The values that follow come from patent US12492193B2, “Pyrazole derivatives for the treatment of cystic fibrosis” (Fondazione Istituto Italiano Di Tecnologia, priority 2017, dated 2025).

The target of this experiment is T1, mutant CFTR (Homo sapiens, UniProt P13569, DEL508-508).
T1 construct: expressed in transfected cells
Briefly: Fluorescence (HS-YFP) assay for CFTR activity, corrector assay. In kind it is cell-based. To be noted: CFBE41o- and FRT cells with stable expression of mutant CFTR, 24 h compound treatment. The procedure, abridged:
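Corrector activity: 24 h compound treatment of HS-YFP/mutant-CFTR CFBE41o- or FRT cells, followed by 30 min forskolin 20 μM + genistein 50 μM at 37° C. Iodide influx (100 mM final) was tracked as fluorescence quenching, with dF/dt extrapolated by exponential fitting; EC50 values derived.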

T1 sequence (P13569 with tags, fused parts or gaps DEL508-508): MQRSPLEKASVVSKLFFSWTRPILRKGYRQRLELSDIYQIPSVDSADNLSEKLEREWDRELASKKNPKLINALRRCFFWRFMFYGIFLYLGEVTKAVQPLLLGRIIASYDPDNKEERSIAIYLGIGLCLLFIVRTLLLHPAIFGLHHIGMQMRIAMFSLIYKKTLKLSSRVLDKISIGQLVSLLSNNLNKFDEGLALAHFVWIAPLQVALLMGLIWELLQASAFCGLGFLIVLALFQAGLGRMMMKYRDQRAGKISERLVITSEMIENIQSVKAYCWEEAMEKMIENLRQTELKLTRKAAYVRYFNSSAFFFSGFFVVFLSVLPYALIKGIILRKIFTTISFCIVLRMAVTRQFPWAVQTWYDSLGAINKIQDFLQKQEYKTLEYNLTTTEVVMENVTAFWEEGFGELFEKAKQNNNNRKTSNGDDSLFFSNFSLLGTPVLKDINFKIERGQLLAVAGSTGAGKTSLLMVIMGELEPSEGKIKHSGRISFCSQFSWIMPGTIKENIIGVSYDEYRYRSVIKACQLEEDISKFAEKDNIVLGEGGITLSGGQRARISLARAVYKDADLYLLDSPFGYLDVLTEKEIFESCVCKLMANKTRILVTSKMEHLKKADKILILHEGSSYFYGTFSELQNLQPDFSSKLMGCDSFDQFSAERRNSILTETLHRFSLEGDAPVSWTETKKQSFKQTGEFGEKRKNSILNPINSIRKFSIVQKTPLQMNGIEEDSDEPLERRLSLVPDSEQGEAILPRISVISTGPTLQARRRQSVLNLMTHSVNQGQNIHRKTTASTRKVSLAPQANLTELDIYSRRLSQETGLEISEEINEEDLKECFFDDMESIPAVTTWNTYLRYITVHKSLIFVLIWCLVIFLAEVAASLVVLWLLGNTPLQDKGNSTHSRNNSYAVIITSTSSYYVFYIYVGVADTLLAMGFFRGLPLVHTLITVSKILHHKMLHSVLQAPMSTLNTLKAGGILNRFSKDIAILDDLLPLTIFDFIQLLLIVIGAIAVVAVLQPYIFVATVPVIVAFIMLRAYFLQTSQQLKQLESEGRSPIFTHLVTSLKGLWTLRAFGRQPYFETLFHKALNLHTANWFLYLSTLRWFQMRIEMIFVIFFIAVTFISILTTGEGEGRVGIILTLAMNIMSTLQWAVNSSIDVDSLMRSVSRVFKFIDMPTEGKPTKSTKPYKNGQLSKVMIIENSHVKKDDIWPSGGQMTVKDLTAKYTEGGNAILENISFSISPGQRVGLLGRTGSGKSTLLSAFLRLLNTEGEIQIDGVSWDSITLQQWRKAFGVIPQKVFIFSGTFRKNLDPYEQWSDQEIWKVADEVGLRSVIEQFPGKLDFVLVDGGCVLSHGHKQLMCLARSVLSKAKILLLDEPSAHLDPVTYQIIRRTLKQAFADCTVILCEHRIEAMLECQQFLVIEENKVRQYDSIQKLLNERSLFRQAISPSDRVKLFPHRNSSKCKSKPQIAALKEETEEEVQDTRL

As a reminder, the EC50 is the concentration giving half of the maximal effect. As for `O=C(O)c1ccc(OCc2c(Cl)c(C(F)(F)F)nn2-c2cccc(C(=O)Nc3ccc4c(c3)OC(F)(F)O4)c2)cc1` [compound 174, 4-[[4-Chloro-2-[3-[(2,2-difluoro-1,3-benzodioxol-5-yl)carbamoyl]phenyl]-5-(trifluoromethyl)pyrazol-3-yl]methoxy] benzoic acid], the EC50 is over 2000 nM.
To `CN(C(=O)c1cccc(-n2nc(C(F)(F)F)c(Cl)c2COc2ccc(C(=O)OC(C)(C)C)cc2)c1)c1ccc2c(c1)OC(F)(F)O2` [compound 175, Tert-butyl 4-[[4-chloro-2-[3-[(2,2-difluoro-1,3-benzodioxol-5-yl)-methyl-carbamoyl]phenyl]-5-(trifluoromethyl)pyrazol-3-yl]methoxy]benzoate] belongs under 1000 nM; to `CN(C(=O)c1cccc(-n2nc(C(F)(F)F)cc2-c2ccccc2C(F)(F)F)c1)c1ccc2c(c1)OCO2` [compound 176, N-(1,3-Benzodioxol-5-yl)-N-methyl-3-[3-(trifluoromethyl)-5-[2-(trifluoromethyl)phenyl]pyrazol-1-yl]benzamide], under 1000 nM.
For `CN(C(=O)c1cccc(-n2nc(C(F)(F)F)c(Cl)c2COc2ccc(C(=O)O)cc2)c1)c1ccc2c(c1)OC(F)(F)O2` [compound 177, 4-[[4-chloro-2-[3-[(2,2-difluoro-1,3-benzodioxol-5-yl)-methyl-carbamoyl]phenyl]-5-(trifluoromethyl)pyrazol-3-yl]methoxy]benzoic acid] the value was under 1000 nM; for `Cc1c(Cl)c(C(F)(F)F)nn1-c1cccc(C(=O)N(C)c2cc3c(cc2C(=O)O)OCO3)c1` [compound 179, 6-[[3-[4-chloro-5-methyl-3-(trifluoromethyl)pyrazol-1-yl]benzoyl]-methyl-amino]-1,3-benzodioxole-5-carboxylic acid], over 2000 nM; for `CN(C(=O)c1cccc(-n2nc(C(F)(F)F)c(C=O)c2Oc2ccccc2)c1)c1ccc2c(c1)OCO2` [compound 180, N-(1,3-Benzodioxol-5-yl)-3-[4-formyl-5-phenoxy-3-(trifluoromethyl)pyrazol-1-yl]-N-methyl-benzamide], under 1000 nM.
For `[2H]C([2H])([2H])N(C(=O)c1cccc(-n2nc(C(F)(F)F)c(Cl)c2COc2ccc(C(=O)OC(C)(C)C)cc2)c1)c1ccc2c(c1)OC(F)(F)O2` [compound 181, Tert-butyl 4-[[4-chloro-2-[3-[(2,2-difluoro-1,3-benzodioxol-5-yl)-(trideuteriomethyl)carbamoyl]phenyl]-5-(trifluoromethyl)pyrazol-3-yl]methoxy]benzoate] the value was under 1000 nM; for `[2H]C([2H])([2H])N(C(=O)c1cccc(-n2nc(C(F)(F)F)c(Cl)c2COc2ccc(C(=O)O)cc2)c1)c1ccc2c(c1)OC(F)(F)O2` [compound 182, 4-[[4-Chloro-2-[3-[(2,2-difluoro-1,3-benzodioxol-5-yl)-(trideuteriomethyl)carbamoyl]phenyl]-5-(trifluoromethyl)pyrazol-3-yl]methoxy]benzoic acid], under 1000 nM; for `COc1ccccc1-c1c(Cl)c(C(F)(F)F)nn1-c1cccc(C(=O)N(C)c2ccc3c(c2)OCO3)c1` [compound 183, N-(1,3-Benzodioxol-5-yl)-3-[4-chloro-5-(2-methoxyphenyl)-3-(trifluoromethyl)pyrazol-1-yl]-N-methyl-benzamide], under 1000 nM.
Regarding `COc1ccccc1-c1cc(C(F)(F)F)nn1-c1cccc(C(=O)N(C)c2ccc3c(c2)OCO3)c1` [compound 184, N-(1,3-Benzodioxol-5-yl)-3-[5-(2-methoxyphenyl)-3-(trifluoromethyl)pyrazol-1-yl]-N-methyl-benzamide], the concentration giving a half-maximal response (EC50) was under 1000 nM.
For `CN(C(=O)c1cccc(-n2nc(C(F)(F)F)c(C#N)c2Oc2ccccc2)c1)c1ccc2c(c1)OCO2` [compound 185, N-(1,3-Benzodioxol-5-yl)-3-[4-cyano-5-phenoxy-3-(trifluoromethyl)pyrazol-1-yl]-N-methyl-benzamide], the EC50 was under 1000 nM.
To `Cc1c(C=O)c(C(F)(F)F)nn1-c1cccc(C(=O)N(C)c2ccc3c(c2)OCO3)c1` [compound 186, N-(1,3-Benzodioxol-5-yl)-3-[4-formyl-5-methyl-3-(trifluoromethyl)pyrazol-1-yl]-N-methyl-benzamide] belongs under 1000 nM; to `Cc1c(C#N)c(C(F)(F)F)nn1-c1cccc(C(=O)N(C)c2ccc3c(c2)OCO3)c1` [compound 187, N-(1,3-Benzodioxol-5-yl)-3-[4-cyano-5-methyl-3-(trifluoromethyl)pyrazol-1-yl]-N-methyl-benzamide], under 1000 nM; to `Cc1nc2ccc(N(C)C(=O)c3cccc(-n4nc(C(F)(F)F)cc4OCc4ccc(C(=O)OC(C)(C)C)cc4)c3)cc2o1` [compound 188, Tert-butyl 4-[[2-[3-[methyl-(2-methyl-1,3-benzoxazol-6-yl)carbamoyl]phenyl]-5-(trifluoromethyl)pyrazol-3-yl]oxymethyl]benzoate], under 1000 nM.
For `Cc1nc2cc(F)c(N(C)C(=O)c3cccc(-n4nc(C(F)(F)F)cc4OCc4ccc(C(=O)OC(C)(C)C)cc4)c3)cc2o1` [compound 189, Tert-butyl 4-[[2-[3-[(5-fluoro-2-methyl-1,3-benzoxazol-6-yl)-methyl-carbamoyl]phenyl]-5-(trifluoromethyl)pyrazol-3-yl]oxymethyl]benzoate] the value was under 1000 nM.
As to `Cc1nc2ccc(N(C)C(=O)c3cccc(-n4nc(C(F)(F)F)c(Cl)c4OCc4ccc(C(=O)OC(C)(C)C)cc4)c3)cc2o1` [compound 190, Tert-butyl 4-[[4-chloro-2-[3-[methyl-(2-methyl-1,3-benzoxazol-6-yl)carbamoyl]phenyl]-5-(trifluoromethyl)pyrazol-3-yl]oxymethyl]benzoate], the EC50 was under 1000 nM.
To `CN(C(=O)c1cccc(-n2nc(C(F)(F)F)cc2OCc2ccc(C(=O)OC(C)(C)C)cc2)c1)c1ccc2c(c1)OC(F)(F)O2` [compound 191, Tert-butyl 4-[[2-[3-[(2,2-difluoro-1,3-benzodioxol-5-yl)-methyl-carbamoyl]phenyl]-5-(trifluoromethyl)pyrazol-3-yl]oxymethyl]benzoate] belongs under 1000 nM; to `CN(C(=O)c1cccc(-n2nc(-c3ccccn3)cc2C(F)(F)F)c1)c1ccc2c(c1)OCO2` [compound 192, N-(1,3-benzodioxol-5-yl)-N-methyl-3-[3-(2-pyridyl)-5-(trifluoromethyl)pyrazol-1-yl]benzamide], 1000 to 2000 nM; to `CN(C(=O)c1cccc(-n2nc(C(F)(F)F)cc2-c2cccnc2)c1)c1ccc2c(c1)OCO2` [compound 193, N-(1,3-Benzodioxol-5-yl)-N-methyl-3-[5-(3-pyridyl)-3-(trifluoromethyl)pyrazol-1-yl]benzamide], under 1000 nM.
With `CN(C(=O)c1cccc(-n2nc(-c3cccnc3)cc2C(F)(F)F)c1)c1ccc2c(c1)OCO2` [compound 194, N-(1,3-Benzodioxol-5-yl)-N-methyl-3-[3-(3-pyridyl)-5-(trifluoromethyl)pyrazol-1-yl]benzamide], the EC50 was 1000 to 2000 nM.
To `Cc1nc2ccc(N(C)C(=O)c3cccc(-n4nc(C(F)(F)F)cc4OCc4ccc(C(=O)O)cc4)c3)cc2o1` [compound 195, 4-[[2-[3-[Methyl-(2-methyl-1,3-benzoxazol-6-yl)carbamoyl]phenyl]-5-(trifluoromethyl)pyrazol-3-yl]oxymethyl]benzoic acid] belongs under 1000 nM.
For the molecule `Cc1nc2cc(F)c(N(C)C(=O)c3cccc(-n4nc(C(F)(F)F)cc4OCc4ccc(C(=O)O)cc4)c3)cc2o1` [compound 196, 4-[[2-[3-[(5-Fluoro-2-methyl-1,3-benzoxazol-6-yl)-methyl-carbamoyl]phenyl]-5-(trifluoromethyl)pyrazol-3-yl]oxymethyl]benzoic acid], the EC50 was under 1000 nM.
For `CN(C(=O)c1cccc(-n2nc(C(F)(F)F)cc2OCc2ccc(C(=O)O)cc2)c1)c1ccc2c(c1)OC(F)(F)O2` [compound 197, 4-[[2-[3-[(2,2-difluoro-1,3-benzodioxol-5-yl)-methyl-carbamoyl]phenyl]-5-(trifluoromethyl)pyrazol-3-yl]oxymethyl]benzoic acid] the value was under 1000 nM.
To `Cc1nc2ccc(N(C)C(=O)c3cccc(-n4nc(C(F)(F)F)c(Cl)c4OCc4ccc(C(=O)O)cc4)c3)cc2o1` [compound 198, 4-[[4-Chloro-2-[3-[methyl-(2-methyl-1,3-benzoxazol-6-yl)carbamoyl]phenyl]-5-(trifluoromethyl)pyrazol-3-yl]oxymethyl]benzoic acid] belongs under 1000 nM; to `CN(C(=O)c1cccc(-n2nc(C(F)(F)F)c(C#N)c2Oc2ccc(C(=O)OC(C)(C)C)cc2)c1)c1ccc2c(c1)OCO2` [compound 200, Tert-butyl 4-[2-[3-[1,3-benzodioxol-5-yl (methyl)carbamoyl]phenyl]-4-cyano-5-(trifluoromethyl)pyrazol-3-yl]oxybenzoate], under 1000 nM; to `CN(C(=O)c1cccc(-n2nc(C(F)(F)F)c(Cl)c2OCc2ccc(C(=O)OC(C)(C)C)cc2)c1)c1ccc2c(c1)OC(F)(F)O2` [compound 201, Tert-butyl 4-[[4-chloro-2-[3-[(2,2-difluoro-1,3-benzodioxol-5-yl)-methyl-carbamoyl]phenyl]-5-(trifluoromethyl)pyrazol-3-yl]oxymethyl]benzoate], under 1000 nM.
For `Cc1nc2cc(F)c(N(C)C(=O)c3cccc(-n4nc(C(F)(F)F)c(Cl)c4OCc4ccc(C(=O)OC(C)(C)C)cc4)c3)cc2o1` [compound 202, Tert-butyl 4-[[4-chloro-2-[3-[(5-fluoro-2-methyl-1,3-benzoxazol-6-yl)-methyl-carbamoyl]phenyl]-5-(trifluoromethyl)pyrazol-3-yl]oxymethyl]benzoate] the value was under 1000 nM; for `Cc1cc(C(F)(F)F)nn1-c1cccc(S(=O)(=O)N(C)c2ccc3c(c2)OCO3)c1` [compound 204, N-(1,3-Benzodioxol-5-yl)-N-methyl-3-[5-methyl-3-(trifluoromethyl)pyrazol-1-yl]benzenesulfonamide], 1000 to 2000 nM.
